Assay [1] deals with T1, PNPO (pyridoxine-5'-phosphate oxidase) (Homo sapiens, UniProt Q9NVS9).
T1 construct: PNPO WT, 6×His tag (pet-28a)
T1 sequence (Q9NVS9 1-261): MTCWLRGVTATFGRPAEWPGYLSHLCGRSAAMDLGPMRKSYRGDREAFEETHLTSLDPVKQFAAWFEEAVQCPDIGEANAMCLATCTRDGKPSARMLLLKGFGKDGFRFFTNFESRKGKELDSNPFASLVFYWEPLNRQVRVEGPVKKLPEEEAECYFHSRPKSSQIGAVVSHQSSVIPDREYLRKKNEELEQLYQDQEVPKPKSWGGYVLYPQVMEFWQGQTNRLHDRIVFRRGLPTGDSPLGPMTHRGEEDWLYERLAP
As to the kind of experiment: microscale thermophoresis (MST) with RED-NHS-labelled purified protein. The class given is binding. On the technique in general: In MST a laser heats a spot of the sample, and binding alters the fluorescence response.

Assay [2] concerns the target T1, PNPO (pyridoxine-5'-phosphate oxidase). As to the kind of experiment: microscale thermophoresis (MST); also HuProt […] proteome microarray with FITC-labelled celastrol. Type of assay: binding.

What is called Kd is the free concentration of one partner at which half of the binding sites on the other are occupied at equilibrium, for simple one-to-one binding. Lower therefore signals a tighter complex. Consider `CC1=NN(c2ccc(C)c(C)c2)C(=O)/C1=N\Nc1cccc(-c2cccc(C(=O)O)c2)c1O` [Eltrombopag], for which the Kd in assay [1] worked out at 180 ± 90 nM.

As for `CC1=C(O)C(=O)C=C2C1=CC=C1[C@@]2(C)CC[C@@]2(C)[C@@H]3C[C@](C)(C(=O)O)CC[C@]3(C)CC[C@]12C` [celastrol], the “microscale thermophoresis (MST); also HuProt 20K proteome microarray with FITC-l” value in assay [2] was “MST analysis confirmed a direct interaction between celastrol and PNPO”.

For the origin of these results see paper PMC11792023, “PNPO‐Mediated Oxidation of DVL3 Promotes Multiple Myeloma Malignancy and Osteoclastogenesis by Activating the Wnt/β‐Catenin Pathway” (Advanced Science, 2024).
